Experimental data published in PubChem BioAssay (NCI).
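The compound was tested at five concentrations on cells cultured in 96-well plates, with a 48-hour exposure period. The concentration for 50% growth inhibition is given as GI50. The concentration for full growth arrest is given as TGI.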

Tests used:
Experiment in all cases: NCI anticancer screen, dose series, 48 h
[1] = system: OVCAR-5 ovarian
[2] = system: 786-0 renal
[3] = system: NCI-H226 lung
[4] = system: SNB-75 CNS
[5] = system: HOP-92 NSCLC
[6] = system: MDA-MB-231 breast
[7] = system: MOLT-4 leukemia
[8] = system: SN12C renal
[9] = system: LOX IMVI melanoma
[10] = system: OVCAR-4 ovarian

SMILES | TGI [1] | TGI [2] | TGI [3] | TGI [4] | TGI [5] | TGI [6] | TGI [7] | TGI [8] | TGI [9] | TGI [10] | GI50 [3]
O=C1CS(=O)(=O)C(c2cccc(Oc3ccccc3)c2)N1c1cc(Cl)ccc1Cl (stereo not given) | > 100 µM | 34.8 µM | 41.5 µM | 33.1 µM | 38.8 µM | 38.4 µM | > 100 µM | 39 µM | 28.2 µM | – | –
C=C1C(=O)C23C(O)CC4C5(C)CCCC4(C(O)OC5)C2C(OC(C)=O)CC1C3O (stereo not given) | 31.9 µM | 19.2 µM | 37.1 µM | 16.6 µM | 14.6 µM | – | 17 µM | 24.3 µM | 29.2 µM | 27.8 µM | –
CC(=O)Oc1c(C)c(C)c2c(c1C)CCC(C)(CC(=O)OCCCCCCCCCCC[P+](c1ccccc1)(c1ccccc1)c1ccccc1)O2 (stereo not given) | – | – | 25.4 µM | – | – | – | – | – | – | – | 0.386 µM
c1ccc2c(c1)CCCC/C2=N/OCC1CO1 (stereo not given) | – | – | 90.9 µM | > 100 µM | 69.2 µM | – | > 100 µM | > 100 µM | > 100 µM | – | –
CC1=NNC(=O)C1C1CC(c2c[nH]c3ccccc23)=NN=C1Cl (stereo not given) | > 100 µM | > 100 µM | > 100 µM | > 100 µM | > 100 µM | > 100 µM | 75.8 µM | > 100 µM | > 100 µM | – | –
O=S1(=O)C[C@@H](NCc2ccccc2)[C@H](NCc2ccccc2)C1 | > 100 µM | – | > 100 µM | > 100 µM | > 100 µM | > 100 µM | > 100 µM | > 100 µM | > 100 µM | > 100 µM | –
COc1ccc([C@H]2C=[N+]([O-])O[C@H](OC3CCCC3)[C@@H]2OC(C)=O)cc1OC | – | – | > 100 µM | > 100 µM | 32.9 µM | 78.2 µM | > 100 µM | – | 31.3 µM | > 100 µM | –
CCOC(=O)C1CCC(=O)N1C(=O)c1ccccc1Cl (stereo not given) | > 100 µM | > 100 µM | > 100 µM | > 100 µM | > 100 µM | > 100 µM | > 100 µM | > 100 µM | > 100 µM | – | –
Cc1cc(C)c(/C=C(\C(=C/c2c(C)cc(C)cc2C)[N+](=O)[O-])[N+](=O)[O-])c(C)c1 | > 100 µM | – | – | > 100 µM | > 100 µM | > 100 µM | > 100 µM | > 100 µM | > 100 µM | > 100 µM | –
C/C(=C\CO)CC/C=C(\C)CNc1ccc([N+](=O)[O-])cc1 | > 100 µM | > 100 µM | > 100 µM | > 100 µM | – | > 100 µM | 18.4 µM | > 100 µM | > 100 µM | > 100 µM | –
COc1cccc2c1OCC1Cc3ccccc3OC21 (stereo not given) | > 100 µM | > 100 µM | > 100 µM | – | – | > 100 µM | > 100 µM | 70.1 µM | 98.3 µM | – | –
COc1cc(/C=C2\CCC(C)/C(=C\c3cc(OC)c(OC)c(OC)c3)C2=O)cc(OC)c1OC (stereo not given) | 14.2 µM | > 100 µM | – | 50.8 µM | > 100 µM | > 100 µM | – | 19.2 µM | > 100 µM | – | –
CCOC(=O)NC(Nc1c(F)c(F)c(F)c(F)c1F)(C(F)(F)F)C(F)(F)F | > 100 µM | > 100 µM | > 100 µM | > 100 µM | > 100 µM | > 100 µM | > 100 µM | > 100 µM | > 100 µM | – | –
O=C1c2cccc(O)c2C(=O)c2c(O)cc(CO)cc21 | > 100 µM | – | > 100 µM | > 100 µM | > 100 µM | – | > 100 µM | > 100 µM | > 100 µM | > 100 µM | –
COc1ccc(OC)c2sc(N3C(=O)/C(=C/c4cccc([N+](=O)[O-])c4)N=C3c3ccccc3)nc12 | > 100 µM | > 100 µM | – | > 100 µM | > 100 µM | > 100 µM | 47.4 µM | > 100 µM | 62.1 µM | – | –
O=[N+]([O-])/C(Cl)=C(\NCCN/C(C(Cl)=C(Cl)Cl)=C(/Cl)[N+](=O)[O-])C(Cl)=C(Cl)Cl | > 100 µM | > 100 µM | > 100 µM | > 100 µM | 53.9 µM | > 100 µM | 80.7 µM | > 100 µM | 37.8 µM | – | –
C[C@H]1OC(=O)[C@@H]2N=NN(Cc3ccccc3)[C@H]12 | > 100 µM | > 100 µM | – | – | > 100 µM | > 100 µM | > 100 µM | > 100 µM | – | > 100 µM | –

SMILES | TGI [1] | TGI [2] | TGI [3] | TGI [4] | TGI [5] | TGI [6] | TGI [7] | TGI [8] | TGI [9] | TGI [10] | GI50 [3]
CC(C)C(N)C(=O)NC(CCC(=O)NCCCCC(N)C(=O)NCCCNc1ccc([N+](=O)[O-])c2[nH]c3ccccc3c(=O)c12)C(N)=O (stereo not given) | > 100 µM | > 100 µM | > 100 µM | > 100 µM | > 100 µM | > 100 µM | – | – | 80.2 µM | > 100 µM | –
CCOC(=O)c1ccc(Nc2nc3ccc(C(F)(F)F)cc3nc2C(=O)OCC)cc1 | > 100 µM | > 100 µM | > 100 µM | > 100 µM | > 100 µM | > 100 µM | > 100 µM | > 100 µM | > 100 µM | – | –
O=C(NN1C(=O)CSC1c1cccc(F)c1)c1ccncc1 (stereo not given) | > 100 µM | – | – | > 100 µM | – | – | > 100 µM | > 100 µM | > 100 µM | > 100 µM | –
COC(=O)N1N=C(c2ccccc2)C1c1ccccc1 (stereo not given) | > 100 µM | > 100 µM | 77.1 µM | > 100 µM | – | > 100 µM | > 100 µM | > 100 µM | 82.8 µM | > 100 µM | –
CSc1nc2c(ncn2C2OC(CO)C(O)C(O)C2O)c(=O)[nH]1 (stereo not given) | > 100 µM | – | > 100 µM | > 100 µM | > 100 µM | – | > 100 µM | > 100 µM | > 100 µM | > 100 µM | –
c1ccc(C2CC(=NC3CCCCC3)Nc3ccccc3N2)cc1 (stereo not given) | > 100 µM | > 100 µM | > 100 µM | 78.4 µM | – | > 100 µM | > 100 µM | > 100 µM | 55.2 µM | > 100 µM | –
O=C(O)/C=C\C(=O)Nc1ccc(S(=O)(=O)c2ccc(NC(=O)/C=C\C(=O)O)cc2)cc1 | > 100 µM | > 100 µM | > 100 µM | > 100 µM | > 100 µM | – | > 100 µM | > 100 µM | > 100 µM | > 100 µM | –
C=CC(=O)N1C/C(=C\c2ccc(Cl)cc2)C(=O)/C(=C/c2ccc(Cl)cc2)C1 | 2.1 µM | 0.55 µM | 3.03 µM | 1.64 µM | 4.25 µM | 1.2 µM | – | 0.704 µM | 0.229 µM | 1.22 µM | –
O=C1c2cccc(O)c2C(=O)c2c(OC3OC(CO)C(O)C(O)C3O)cccc21 (stereo not given) | > 100 µM | > 100 µM | > 100 µM | 54.6 µM | > 100 µM | > 100 µM | – | > 100 µM | > 100 µM | 32.1 µM | –
O=C1OC(c2ccccc2)N(C(=O)c2ccccc2)C1Cc1ccc(OCc2ccccc2)cc1 (stereo not given) | > 100 µM | > 100 µM | > 100 µM | > 100 µM | 53.4 µM | 23.9 µM | – | > 100 µM | > 100 µM | – | –
O=C(/C=C/c1ccc2c(c1)OCO2)Cc1nc2ccccc2[nH]c1=O | > 100 µM | 32.5 µM | – | – | 73.3 µM | 41.7 µM | > 100 µM | 60.2 µM | > 100 µM | – | –
COc1cc([N+](=O)[O-])c(OC)c2c(Nc3ccc(S(=O)(=O)O)c4cc(S(=O)(=O)O)cc(S(=O)(=O)O)c34)cc(C)nc12 | > 100 µM | > 100 µM | > 100 µM | > 100 µM | – | > 100 µM | > 100 µM | > 100 µM | > 100 µM | – | –
O=[N+]([O-])c1cccc2c(N=Nc3ccc4ccccc4c3O)c(O)cc(S(=O)(=O)O)c12 | > 100 µM | > 100 µM | > 100 µM | > 100 µM | > 100 µM | – | > 100 µM | > 100 µM | > 100 µM | > 100 µM | –
COc1cc2[nH]c(-c3ccccc3)cc(=O)c2c(OC)c1OC | > 100 µM | > 100 µM | > 100 µM | > 100 µM | – | > 100 µM | > 100 µM | > 100 µM | > 100 µM | > 100 µM | –
CCN1C(=O)C(=C/C=C/c2ccc(N(CC)CC)cc2)C(=O)N(CC)C1=S | > 100 µM | > 100 µM | > 100 µM | – | > 100 µM | > 100 µM | > 100 µM | > 100 µM | > 100 µM | > 100 µM | –
CC1(C)OC2COC3([C@@H]4OC(C)(C)O[C@@H]4CO)OC(C)(C)OC3C2O1 (stereo not given in full) | > 100 µM | > 100 µM | > 100 µM | > 100 µM | > 100 µM | > 100 µM | – | > 100 µM | > 100 µM | > 100 µM | –
CC#CC(O)(C(=O)OC1CC(C)N(C)C(C)(C)C1)C1CCCC1 (stereo not given) | > 100 µM | > 100 µM | > 100 µM | > 100 µM | – | > 100 µM | > 100 µM | > 100 µM | > 100 µM | – | –
